Results from US20050239656A1, “Pyridine compounds or salts thereof and herbicides containing the same” (priority 2002, published 2005).

Columns and labels:
rice (var. Nihonbare) = assay: Test Example 3: paddy pot test, transplanted rice; format: in vivo, Oryza sativa L.; details: active ingredient 250 g/ha, applied 4th day after transplantation, visually observed 21st day after application, 0 = non-treated, 100 = complete kill
Procedure, shortened: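 Rice (var. Nihonbare) at 2 leaf stage transplanted 3 cm deep into puddled paddy soil under 3–4 cm flooding; on day 4 after transplanting, diluted wettable powder or emulsifiable concentrate applied by pipette under submerged conditions at a set active-ingredient dose. Growth scored visually 21 days after application, 0 (untreated) to 100 (complete kill) %.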

velvetleaf = assay: Test Example 2: soil surface treatment, upland pot test; format: in vivo, Abutilon theophrasti MEDIC.; details: active ingredient 500 g/ha, observed 20th to 28th day
Source text: (§1) Upland field soil was put into a 1/170,000 ha pot, and seed of various plants (barnyardgrass, crabgrass, green foxtail, redroot pigweed, prickly sida, velvetleaf, rice, wheat, corn, soybean) were sown. On the 1st day after the sowing, a wettable powder or emulsifiable concentrate having the compound of the present invention formulated in accordance with a usual formulation method, was weighed so that the active ingredient would be a predetermined amount, and diluted with water in an amount of 1,500 L/ha. The herbicide thus adjusted was applied by a small size sprayer for soil surface treatment. On the 20th to 28th days after the application of the herbicide, the growth of the respective plants was visually observed, and the herbicidal effects were evaluated by the growth controlling degrees (%) ranging from 0 (equivalent to the non-treated plot) to 100 (complete kill), whereby the results shown in Table 4, were obtained.

crabgrass = assay: as above; format: in vivo, Digitaria sanguinalis L.; details: active ingredient 500 g/ha, observed 20th to 28th day
Source text: as §1

barnyardgrass [1] = assay: as above; format: in vivo, Echinochloa crus-galli L.; details: active ingredient 500 g/ha, observed 20th to 28th day
Source text: as §1

barnyardgrass [2] = assay: Test Example 3: paddy pot test, application under submerged conditions; format: in vivo, Echinochloa crus-galli L.; details: active ingredient 250 g/ha; submerged application at 0.5 leaf stage; visually observed 14 days after application; 0 = non-treated, 100 = complete kill
Procedure, shortened: (§2)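 Barnyardgrass and japanese bulrush sown in flooded paddy soil in greenhouse pots, japanese ribbon wapato tubers planted 1–2 days later; water depth kept at 3–4 cm. Diluted wettable powder or emulsifiable concentrate applied into water at 0.5-leaf or primary-leaf stage at set active-ingredient doses. Growth control scored visually at 14 days, 0 (untreated) to 100% (complete kill).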

green foxtail = assay: Test Example 2: soil surface treatment, upland pot test; format: in vivo, Setaria viridis L.; details: active ingredient 500 g/ha, observed 20th to 28th day
Source text: as §1

prickly sida = assay: as above; format: in vivo, Sida spinosa L.; details: active ingredient 500 g/ha, observed 20th to 28th day
Source text: as §1

soybean = assay: as above; format: in vivo, Glycine max Merr.; details: active ingredient 500 g/ha, observed 20th to 28th day
Source text: as §1

redroot pigweed = assay: as above; format: in vivo, Amaranthus retroflexus L.; details: active ingredient 500 g/ha, observed 20th to 28th day
Source text: as §1

rice = assay: as above; format: in vivo, Oryza sativa L.; details: active ingredient 500 g/ha, observed 20th to 28th day
Source text: as §1

corn = assay: as above; format: in vivo, Zea mays L.; details: active ingredient 500 g/ha, observed 20th to 28th day
Source text: as §1

japanese bulrush = assay: Test Example 3: paddy pot test, application under submerged conditions; format: in vivo, Scirpus juncoides; details: active ingredient 250 g/ha; submerged application at 0.5 leaf stage; visually observed 14 days after application; 0 = non-treated, 100 = complete kill
Procedure, shortened: as §2

japanese ribbon wapato = assay: as above; format: in vivo, Sagittaria pygniaea; details: active ingredient 250 g/ha; submerged application at primary leaf stage; visually observed 14 days after application; 0 = non-treated, 100 = complete kill
Procedure, shortened: as §2

| Structure (SMILES) | Growth controlling degree (%) Rice (rice (var. Nihonbare)) [%] | Growth controlling degree (%) Velvetleaf (velvetleaf) [%] | Growth controlling degree (%) Crabgrass (crabgrass) [%] | Growth controlling degree (%) Barnyardgrass (barnyardgrass [1]) [%] | Growth controlling degree (%) Barnyardgrass (barnyardgrass [2]) [%] | Growth controlling degree (%) Green foxtail (green foxtail) [%] | Growth controlling degree (%) Prickly sida (prickly sida) [%] | Growth controlling degree (%) Soyabean (soybean) [%] | Growth controlling degree (%) Redroot pigweed (redroot pigweed) [%] | Growth controlling degree (%) Rice (rice) [%] | Growth controlling degree (%) Corn (corn) [%] | Growth controlling degree (%) Japanese bulrush (japanese bulrush) [%] | Growth controlling degree (%) Japanese ribbon wapato (japanese ribbon wapato) [%] |
| --- | --- | --- | --- | --- | --- | --- | --- | --- | --- | --- | --- | --- | --- |
| CC(C)C(c1cnccc1C(F)(F)F)N(C)C(=O)Cc1cc(C(F)(F)F)ccc1F (centres unmarked) [Compound I-96] | 30 | 50 | 85 | 60 | 100 | 100 | 70 | 20 | 80 | 10 | 20 | 100 | 0 |
| CC(C)C(c1cnccc1C(F)(F)F)N(C)C(=O)Cc1cc(F)cc(C(F)(F)F)c1 (centres unmarked) [Compound I-97] | 0 | 40 | 98 | 60 | 100 | 100 | 90 | 10 | 60 | 40 | 20 | 80 | 0 |
| CCN(C(=O)Cc1ccc(F)cc1)C(c1cnccc1C(F)(F)F)C(C)C (centres unmarked) [Compound I-99] | 0 | 40 | 98 | 100 | 100 | 100 | 95 | 30 | 40 | 20 | 40 | 98 | 90 |
| CCN(C(=O)Cc1ccc(Cl)cc1)C(c1cnccc1C(F)(F)F)C(C)C (centres unmarked) [Compound I-100] | 10 | 10 | 98 | 98 | 100 | 100 | 70 | 0 | 10 | 30 | 30 | 95 | 30 |
| CCN(C(=O)Cc1ccccc1)C(c1cnccc1Cl)C(C)C (centres unmarked) [Compound I-102] | 10 | 0 | 98 | 100 | 98 | 100 | 60 | 20 | 20 | 10 | 35 | 100 | 60 |
| Cc1ccc(OCC(=O)N(C)C(c2cnccc2C(F)(F)F)C(C)C)cc1 (centres unmarked) [Compound I-239] | 0 | 30 | 95 | 60 | 98 | 90 | 80 | 10 | 70 | 0 | 10 | 98 | 70 |
| CC(C)C(c1cnccc1C(F)(F)F)N(C)C(=O)COc1cccc(F)c1 (centres unmarked) [Compound I-242] | 0 | 70 | 98 | 98 | 100 | 100 | 98 | 10 | 90 | 10 | 40 | 95 | 70 |
| CC(C)C(c1cnccc1C(F)(F)F)N(C)C(=O)COc1ccccc1F (centres unmarked) [Compound I-243] | 0 | 30 | 100 | 90 | 100 | 100 | 90 | 10 | 80 | 10 | 40 | 98 | 70 |
